In patent US5409817A, “Use of trans-sialidase and sialyltransferase for synthesis of sialylα2→3βgalactosides” (priority 1993, dated 1995):
Read-outs that look alike come from different tables or passages of the source.

Columns and labels:
T. crusi trans-sialidase = T. crusi trans-sialidase (Trypanosoma cruzi, UniProt P23253); test: Suitability as acceptor for the trans-sialidase; assay type: biochemical
Excerpt: The third principal enzyme used here is the trans-sialidase of Trypanosoma crusi (T. crusi) whose isolation and reactivity was reported in Vendekerckhove et al., Glycobiology, 6:541 (1992). This enzyme is often referred to as the trans-sialidase, and has a broad specificity for transferring sialic acid from a wide variety of NeuAcα2→3βGal-containing donor oligosaccharides to the non-reducing terminus (end) of a narrower range oligosaccharide acceptors whose nonreducing terminal saccharide is a β-linked Gal. A sialic acid is not transferred from an α(2,6)-linked Gal.
Thus, using the α(2,3)sialyltransferase acceptors of Scheme 2 (Compounds 2a and 2b) as exemplary and keeping in mind the before-discussed structural preferences and requirements of the T. crusi trans-sialidase for an acceptor substrate, it is seen that Compound 2a that has a non-reducing terminal Galβ1→3GlcNAc linkage, whereas Compound 2b contains a Galβ1→3GalNAc linkage, neither of which is preferred for an acceptor for the trans-sialidase, and both are present in a catalytic amount.

α(2,3)sialyltransferases = test: Suitability as substrate of α(2,3)sialyltransferases; assay type: biochemical; settings: all known α(2,3)sialyltransferases
Excerpt: First, the corresponding galactoside Compound 3 [Jansson et al., J. Org. […] Second, after protection of hydroxy and carboxylate groups and selective cleavage of 2-(trimethylsilyl)ethyl glycoside, the sialoside Compound 4 is readily converted to a disaccharide glycosyl donor that can be used in the block chemical synthesis of ganglioside GM4 and more complex sialosides [(a) Suguimoto et al., Tetrahedron Lett., 31:385 (1990); (b) Kameyama et al., Carbohydr. Res., 209 (1991)] as reported by others.

[1] = molecular target: T1, α-(2,3)Sialyltransferase EC 2.4.99.6 (Rattus norvegicus, UniProt Q02734); settings: acceptor for EC 2.4.99.6, cited from earlier work
T1 sequence (Q02734 1-374): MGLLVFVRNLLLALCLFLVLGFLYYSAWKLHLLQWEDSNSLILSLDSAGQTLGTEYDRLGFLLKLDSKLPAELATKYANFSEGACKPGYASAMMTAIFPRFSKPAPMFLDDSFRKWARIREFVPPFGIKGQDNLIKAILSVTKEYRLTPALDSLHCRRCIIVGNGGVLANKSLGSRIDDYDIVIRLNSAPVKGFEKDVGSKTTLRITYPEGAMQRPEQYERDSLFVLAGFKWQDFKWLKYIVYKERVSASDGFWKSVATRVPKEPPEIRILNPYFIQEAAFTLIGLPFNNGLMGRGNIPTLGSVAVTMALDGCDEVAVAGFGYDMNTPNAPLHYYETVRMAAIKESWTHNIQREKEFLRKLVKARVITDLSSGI

[2] = molecular target: T2, α-(2,3)Sialyltransferase EC 2.4.99.4 (Sus scrofa, UniProt Q02745); settings: acceptor for EC 2.4.99.4, cited from earlier work
T2 sequence (Q02745 1-343): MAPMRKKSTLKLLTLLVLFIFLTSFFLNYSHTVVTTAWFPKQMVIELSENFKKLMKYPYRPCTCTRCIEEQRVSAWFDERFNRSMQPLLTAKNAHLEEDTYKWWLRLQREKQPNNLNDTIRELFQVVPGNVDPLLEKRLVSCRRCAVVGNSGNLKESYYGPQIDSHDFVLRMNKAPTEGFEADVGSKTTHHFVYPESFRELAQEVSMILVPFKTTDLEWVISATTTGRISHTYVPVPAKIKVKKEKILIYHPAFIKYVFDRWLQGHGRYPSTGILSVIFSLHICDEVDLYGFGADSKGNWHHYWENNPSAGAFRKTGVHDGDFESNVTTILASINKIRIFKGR

[3] = value approximated from the data in Rearick et al.

Chain of T. crusi trans-sialidase (P23253 whole entry): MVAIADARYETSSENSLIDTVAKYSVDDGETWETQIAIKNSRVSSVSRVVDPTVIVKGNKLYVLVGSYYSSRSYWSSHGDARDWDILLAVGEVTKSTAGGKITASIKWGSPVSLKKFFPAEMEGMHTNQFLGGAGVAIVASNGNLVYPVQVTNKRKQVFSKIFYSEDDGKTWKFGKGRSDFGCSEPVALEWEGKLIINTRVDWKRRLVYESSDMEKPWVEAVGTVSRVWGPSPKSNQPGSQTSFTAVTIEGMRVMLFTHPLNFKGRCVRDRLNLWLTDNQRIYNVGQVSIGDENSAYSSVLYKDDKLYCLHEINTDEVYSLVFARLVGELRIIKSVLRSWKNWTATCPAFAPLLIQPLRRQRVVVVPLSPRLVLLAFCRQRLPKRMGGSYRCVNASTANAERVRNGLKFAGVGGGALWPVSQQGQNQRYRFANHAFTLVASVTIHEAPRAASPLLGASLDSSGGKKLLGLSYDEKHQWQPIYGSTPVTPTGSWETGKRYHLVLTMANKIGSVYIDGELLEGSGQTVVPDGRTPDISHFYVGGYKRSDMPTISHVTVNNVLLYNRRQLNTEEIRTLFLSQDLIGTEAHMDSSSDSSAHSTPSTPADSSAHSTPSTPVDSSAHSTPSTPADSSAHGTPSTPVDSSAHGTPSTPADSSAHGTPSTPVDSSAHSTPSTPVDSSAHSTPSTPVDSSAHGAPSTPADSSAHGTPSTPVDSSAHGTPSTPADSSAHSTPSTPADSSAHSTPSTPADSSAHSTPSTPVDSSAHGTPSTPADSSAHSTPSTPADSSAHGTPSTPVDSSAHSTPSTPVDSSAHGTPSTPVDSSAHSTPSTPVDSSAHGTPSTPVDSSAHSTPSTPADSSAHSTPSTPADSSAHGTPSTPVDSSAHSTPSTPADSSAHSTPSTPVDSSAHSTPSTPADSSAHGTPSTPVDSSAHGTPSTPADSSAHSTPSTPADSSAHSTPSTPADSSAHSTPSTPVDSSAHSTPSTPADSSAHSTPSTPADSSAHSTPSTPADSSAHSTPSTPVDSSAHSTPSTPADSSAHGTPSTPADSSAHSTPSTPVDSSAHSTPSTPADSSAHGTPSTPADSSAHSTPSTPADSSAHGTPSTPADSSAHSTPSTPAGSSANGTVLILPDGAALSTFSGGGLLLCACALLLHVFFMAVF

| SMILES | Km /Vmax [2] [mM-units mg] | Km [1] [µM] | Km /Vmax [1] [mM-units mg] | further results |
| --- | --- | --- | --- | --- |
| CC(=O)N[C@H]1[C@H](O[C@H]2[C@@H](O)[C@@H](CO)O[C@@H](O[C@H]3[C@H](O)[C@@H](O)C(O)O[C@@H]3CO)[C@@H]2O)O[C@H](CO)[C@@H](O)[C@@H]1O[C@@H]1O[C@H](CO)[C@H](O)[C@H](O)[C@H]1O (some centres unmarked) [Compound 2a] | – | – | – | acceptor quality for the trans-sialidase (T. crusi trans-sialidase): relatively poor acceptors |
| CC(=O)N[C@H]1[C@H](OCC[Si](C)(C)C)O[C@H](CO)[C@H](O)[C@@H]1O[C@@H]1O[C@H](CO)[C@H](O)[C@H](O)[C@H]1O [Compound 2b] | – | – | – | acceptor quality for the trans-sialidase (T. crusi trans-sialidase): relatively poor acceptors |
| C[Si](C)(C)CCO[C@@H]1O[C@H](CO)[C@H](O)[C@H](O)[C@H]1O [Compound 3] | – | – | – | substrate quality for α(2,3)sialyltransferases (α(2,3)sialyltransferases): poor substrate |
| CC(=O)N[C@H]1C(O)O[C@H](CO)[C@H](O)[C@@H]1O[C@@H]1O[C@H](CO)[C@H](O)[C@H](O)[C@H]1O (some centres unmarked) [Galβ1→3GalNAc] | 0.024 | – | – | Km /Vmax ([1]; value approximated from the data in Weinstein et al.): > 10 mM-units mg |
| CC(=O)N[C@H]1C(O)O[C@H](CO)[C@@H](O)[C@@H]1O[C@@H]1O[C@H](CO)[C@H](O)[C@H](O)[C@H]1O (some centres unmarked) [Galβ1→3GlcNAc] | 15 | 640 | 0.55 | – |
| CC(=O)N[C@H]1C(O)O[C@H](CO)[C@@H](O[C@@H]2O[C@H](CO)[C@H](O)[C@H](O)[C@H]2O)[C@@H]1O (some centres unmarked) [Galβ1→4GlcNAc] | 382 | 2700 | 3.6 | – |
| OC[C@H]1O[C@@H](O[C@H]2[C@H](O)[C@@H](O)C(O)O[C@@H]2CO)[C@H](O)[C@@H](O)[C@H]1O (some centres unmarked) [Galβ1→4Glc] | 290 | – | 10 | – |
| CC(=O)N[C@H]1C(O)O[C@H](CO[C@@H]2O[C@H](CO)[C@H](O)[C@H](O)[C@H]2O)[C@@H](O)[C@@H]1O (some centres unmarked) [Galβ1→6GlcNAc] | 121 | – | – | – |
| CO[C@@H]1O[C@H](CO)[C@H](O)[C@H](O)[C@H]1O [Galβ1→OCH3] | – | – | – | Km /Vmax [2, 3]: > 100 mM-units mg |
| CC(=O)N[C@H]1[C@H](O[C@H]2[C@@H](O)[C@@H](CO)O[C@@H](O[C@H]3[C@H](O)[C@@H](O)C(O)O[C@@H]3CO)[C@@H]2O)O[C@H](CO)[C@@H](O[C@@H]2O[C@H](CO)[C@H](O)[C@H](O)[C@H]2O)[C@@H]1O (some centres unmarked) [lacto-N-neo-tetraose, Galβ1→4GlcNAcβ1→3Galβ1→4Glc] | – | 4220 | 4.3 | Vmax [1]: 0.98 units/mg; Km /Vmax [2, 3]: > 100 mM-units mg |
| CC(=O)N[C@H]1[C@H](O[C@H]2[C@@H](O)[C@@H](CO)O[C@@H](O[C@H]3[C@H](O)[C@@H](O)C(O)O[C@@H]3CO)[C@@H]2O)O[C@H](CO)[C@@H](O)[C@@H]1O[C@@H]1O[C@H](CO)[C@H](O)[C@H](O)[C@H]1O (some centres unmarked) [lacto-N-tetraose, Galβ1→3GlcNAcβ1→3Galβ1→4Glc] | 7.5 | 90 | 0.09 | Km [2]: 27000 µM |
